Where a name gives a salt, the structure may show the parent alone.
Each compound was assayed against AMPK (assay: AMPK activation, enzyme-linked immunosorbent assay). Settings: Table 2, AMPK activation, ELISA.
Format: biochemical

Structure (SMILES) | EC50 [nM]
N#Cc1ccc(CN2CCC(NC(=O)c3cc(OC4CCN(c5ccc(C(F)(F)F)cc5)CC4)ccn3)CC2)cc1 [Compound 28, N-(1-(4-cyanobenzyl)piperidin-4-yl)-4-(1-(4-(trifluoromethyl)phenyl)piperidin-4-yloxy)picolinamide] | < 100
N#Cc1ccc(N2CCC(Oc3ccc(C(=O)NC4CCN(Cc5ccncc5)CC4)nc3)CC2)cc1 [Compound 1, 5-(1-(4-cyanophenyl)piperidin-4-yloxy)-N-(1-(pyridin-4-ylmethyl)piperidin-4-yl)picolinamide] | 100 to 500
O=C(NC1CCNCC1)c1ccnc(OC2CCN(c3ccc(C(F)(F)F)cc3)CC2)c1 [Compound 19, N-(piperidin-4-yl)-2-(1-(4-(trifluoromethyl)phenyl)piperidin-4-yloxy)isonicotinamide] | 1000 to 5000
N#Cc1ccc(CN2CCC(NC(=O)c3cncc(OC4CCN(c5ccc(C(F)(F)F)cc5)CC4)c3)CC2)cc1 [Compound 17, N-(1-(4-cyanobenzyl)piperidin-4-yl)-5-(1-(4-(trifluoromethyl)phenyl)piperidin-4-yloxy)nicotinamide] | < 100
O=C(N[C@@H]1CCN(Cc2ccc(F)cc2)C1)c1ccc(OC2CCN(c3ccc(C(F)(F)F)cc3)CC2)cn1 [Compound 34, (R)-N-(1-(4-fluorobenzyl)pyrrolidin-3-yl)-5-(1-(4-(trifluoromethyl)phenyl)piperidin-4-yloxy)picolinamide] | 500 to 1000
O=C(NC1CCN(Cc2cccnc2)CC1)c1cncc(OC2CCN(c3ccc(C(F)(F)F)cc3)CC2)c1 [Compound 18, N-(1-(pyridin-3-ylmethyl)piperidin-4-yl)-5-(1-(4-(trifluoromethyl)phenyl)piperidin-4-yloxy)nicotinamide] | < 100

Second part, the compound after the results:

EC50 [nM] | Structure (SMILES)
100 to 500 | CC(C)(C)OC(=O)N1CC[C@H](NC(=O)c2ccc(OC3CCN(c4ccc(C(F)(F)F)cc4)CC3)cn2)C1 [Compound 26, (S)-tert-butyl 3-(5-(1-(4-(trifluoromethyl)phenyl)piperidin-4-yloxy)picolinamido) pyrrolidine-1-carboxylate]
100 to 500 | CC(C)(C)OC(=O)N1CC[C@@H](NC(=O)c2ccc(OC3CCN(c4ccc(C(F)(F)F)cc4)CC3)cn2)C1 [Compound 23, (R)-tert-butyl 3-(5-(1-(4-(trifluoromethyl)phenyl)piperidin-4-yloxy)picolinamido) pyrrolidine-1-carboxylate]
< 100 | O=C(NC1CCN(Cc2ccncc2)CC1)c1cncc(OC2CCN(c3ccc(C(F)(F)F)cc3)CC2)c1 [Compound 14, N-(1-(pyridin-4-ylmethyl)piperidin-4-yl)-5-(1-(4-(trifluoromethyl)phenyl)piperidin-4-yloxy)nicotinamide]

Same assay, conditions: Table 3, AMPK activation, ELISA

Structure (SMILES) | EC50 [nM]
O=C(c1ccc(F)cc1)N1CCC(NS(=O)(=O)c2ccc(OC3CCN(c4ccc(C(F)(F)F)cc4)CC3)nc2)CC1 [Compound 60, N-(1-(4-fluorobenzoyl)piperidin-4-yl)-6-(1-(4-(trifluoromethyl)phenyl)piperidin-4-yloxy)pyridine-3-sulfonamide] | > 50000

Same assay, conditions: Table 4, AMPK activation, ELISA

Structure (SMILES) | EC50 [nM]
O=C(NC1CCN(Cc2cccnc2)CC1)c1cc2ccc(OC3CCN(c4ccc(OC(F)(F)F)cc4)CC3)cc2o1 [Compound 95, N-(1-(pyridin-3-ylmethyl)piperidin-4-yl)-6-(1-(4-(trifluoromethoxy)phenyl)piperidin-4-yloxy)benzofuran-2-carboxamide] | < 100
Cc1c(C(=O)NC2CCN(Cc3cccc(C#N)c3)CC2)oc2cc(OC3CCN(c4ccc(C(F)(F)F)cc4)CC3)ccc12 [Compound 66, N-(1-(3-cyanobenzyl)piperidin-4-yl)-3-methyl-6-(1-(4-(trifluoromethyl)phenyl)piperidin-4-yloxy)benzofuran-2-carboxamide] | < 100
CC(C)(C)OC(=O)N1CCC(NC(=O)c2cc3ccc(OC4CCN(c5ccc(C(F)(F)F)cc5)CC4)cc3o2)CC1 [Compound 82, tert-butyl 4-(6-(1-(4-(trifluoromethyl)phenyl)piperidin-4-yloxy)benzofuran-2-carboxamido)piperidine-1-carboxylate] | 100 to 500
O=C(NC1CCN(Cc2ccncc2)CC1)c1cc2ccc(OC3CCN(c4ccc(OC(F)(F)F)cc4)CC3)cc2o1 [Compound 88, N-(1-(pyridin-4-ylmethyl)piperidin-4-yl)-6-(1-(4-(trifluoromethoxy)phenyl)piperidin-4-yloxy)benzofuran-2-carboxamide] | < 100
N#Cc1ccc(CN2CCC(NC(=O)c3cc4ccc(OC5CCN(c6ccc(C(F)(F)F)cc6)CC5)cc4o3)CC2)cc1 [Compound 90, N-(1-(4-cyanobenzyl)piperidin-4-yl)-6-(1-(4-(trifluoromethyl)phenyl)piperidin-4-yloxy)benzofuran-2-carboxamide] | < 100
NC(=O)c1ccc(CN2CCC(Oc3ccc4oc(C(=O)NC5CCN(Cc6ccccc6)CC5)cc4c3)CC2)cc1 [Compound 116, N-(1-benzylpiperidin-4-yl)-5-(1-(4-carbamoylbenzyl)piperidin-4-yloxy)benzofuran-2-carboxamide] | 100 to 500
CC(C)(C)OC(=O)N1CC[C@H](NC(=O)c2cc3cc(OC4CCN(Cc5ccc(Cl)cc5)CC4)ccc3o2)C1 [Compound 127, (S)-tert-butyl 3-(5-(1-(4-chlorobenzyl)piperidin-4-yloxy)benzofuran-2-carboxamido)pyrrolidine-1-carboxylate] | 1000 to 10000
N#Cc1ccc(CN2CCC(Oc3ccc4oc(C(=O)NC5CCN(Cc6ccccc6)CC5)cc4c3)CC2)cc1 [Compound 70, N-(1-benzylpiperidin-4-yl)-5-(1-(4-cyanobenzyl)piperidin-4-yloxy)benzofuran-2-carboxamide] | < 100
CN(C(=O)c1cc2cc(OC3CCN(c4ccc(C(F)(F)F)cc4)CC3)ccc2o1)C1CCN(Cc2ccccc2C#N)CC1 [Compound 111, N-(1-(2-cyanobenzyl)piperidin-4-yl)-N-methyl-5-(1-(4-(trifluoromethyl)phenyl)piperidin-4-yloxy)benzofuran-2-carboxamide] | 100 to 500
O=C(NC1CCN(Cc2ccc(C(F)(F)F)cc2)CC1)c1cc2ccc(OC3CCN(c4ccc(C(F)(F)F)cc4)CC3)cc2o1 [Compound 99, N-(1-(4-(trifluoromethyl)benzyl)piperidin-4-yl)-6-(1-(4-(trifluoromethyl)phenyl)piperidin-4-yloxy)benzofuran-2-carboxamide] | < 100
O=C(N[C@@H]1CCN(Cc2ccncc2)C1)c1cc2cc(OC3CCN(c4ccc(C(F)(F)F)cc4)CC3)ccc2o1 [Compound 122, (R)-N-(1-(pyridin-4-ylmethyl)pyrrolidin-3-yl)-5-(1-(4-(trifluoromethyl)phenyl)piperidin-4-yloxy)benzofuran-2-carboxamide] | 100 to 500
O=C(NC1CCN(Cc2ccncc2)CC1)c1cc2cc(OC3CCN(c4ccc(OC(F)(F)F)cc4)CC3)ccc2o1 [Compound 78, N-(1-(pyridin-4-ylmethyl)piperidin-4-yl)-5-(1-(4-(trifluoromethoxy)phenyl)piperidin-4-yloxy)benzofuran-2-carboxamide trifluoroacetate salt] | < 100
O=C(NC1CCN(Cc2ccc(F)cc2)CC1)c1cc2ccc(OC3CCN(c4ccc(C(F)(F)F)cc4)CC3)cc2o1 [Compound 91, N-(1-(4-fluorobenzyl)piperidin-4-yl)-6-(1-(4-(trifluoromethyl)phenyl)piperidin-4-yloxy)benzofuran-2-carboxamide] | > 50000

Same assay, conditions: Table 5, AMPK activation, ELISA

Structure (SMILES) | EC50 [nM]
O=C(NC1CCNCC1)c1cc2ccc(OC3CCN(c4ccc(C(F)(F)F)cc4)CC3)cc2s1 [Compound 141, N-(piperidin-4-yl)-6-(1-(4-(trifluoromethyl)phenyl)piperidin-4-yloxy)benzo[b]thiophene-2-carboxamide] | 100 to 500
O=C(NC1CCN(Cc2ccncc2)CC1)c1sc2cc(OC3CCN(c4ccc(C(F)(F)F)cc4)CC3)ccc2c1Cl [Compound 151, 3-chloro-N-(1-(pyridin-4-ylmethyl)piperidin-4-yl)-6-(1-(4-(trifluoromethyl)phenyl)piperidin-4-yloxy)benzo[b]thiophene-2-carboxamide] | < 100
O=C(NC1CCN(Cc2ccncc2)CC1)c1cc2cc(OC3CCN(c4ccc(C(F)(F)F)cc4)CC3)ccc2s1 [Compound 138, N-(1-(pyridin-4-ylmethyl)piperidin-4-yl)-5-(1-(4-(trifluoromethyl)phenyl)piperidin-4-yloxy)benzo[b]thiophene-2-carboxamide] | < 100
CC(C)(C)OC(=O)N1CCC(NC(=O)c2sc3cc(OC4CCN(c5ccc(C(F)(F)F)cc5)CC4)ccc3c2Cl)CC1 [Compound 147, tert-butyl 4-(3-chloro-6-(1-(4-(trifluoromethyl)phenyl)piperidin-4-yloxy)benzo[b]thiophene-2-carboxamido)piperidine-1-carboxylate] | 1000 to 50000
N#Cc1ccccc1CN1CCC(NC(=O)c2cc3ccc(OC4CCN(c5ccc(C(F)(F)F)cc5)CC4)cc3s2)CC1 [Compound 146, N-(1-(2-cyanobenzyl)piperidin-4-yl)-6-(1-(4-(trifluoromethyl)phenyl)piperidin-4-yloxy)benzo[b]thiophene-2-carboxamide] | 100 to 500
N#Cc1cccc(CN2CCC(NC(=O)c3cc4ccc(OC5CCN(c6ccc(C(F)(F)F)cc6)CC5)cc4s3)CC2)c1 [Compound 145, N-(1-(3-cyanobenzyl)piperidin-4-yl)-6-(1-(4-(trifluoromethyl)phenyl)piperidin-4-yloxy)benzo[b]thiophene-2-carboxamide] | 100 to 500
CC(C)(C)OC(=O)N1CCC(NC(=O)c2cc3cc(OC4CCN(c5ccc(C(F)(F)F)cc5)CC4)ccc3s2)CC1 [Compound 149, tert-butyl 4-(5-(1-(4-(trifluoromethyl)phenyl)piperidin-4-yloxy)benzo[b]thiophene-2-carboxamido)piperidine-1-carboxylate] | < 100
O=C(NC1CCN(Cc2ccccn2)CC1)c1sc2cc(OC3CCN(c4ccc(C(F)(F)F)cc4)CC3)ccc2c1Cl [Compound 153, 3-chloro-N-(1-(pyridin-2-ylmethyl)piperidin-4-yl)-6-(1-(4-(trifluoromethyl)phenyl)piperidin-4-yloxy)benzo[b]thiophene-2-carboxamide] | 100 to 500
